Measurements as given in patent US12673927B2, “Substituted aminothiazoles as DGKzeta inhibitors for immune activation” (Deutsches Krebsforschungszentrum, priority 2020, dated 2026).

target: T1, human DGKζ (Homo sapiens, UniProt Q13574); experiment: Human DGKζ kinase activity inhibition assay (ADP-Glo); type: biochemical; conditions: recombinant full-length human DGKζ, 55 μM ATP, 7 μM 1,2-dioleoyl-sn-glycerol, 20 min at 22° C.; read-out: IC50 in vitro human DGKζ kinase activity inhibition assay
T1 construct: made in house; host or cells: Sf9 insect cells, baculovirus
T1 sequence (Q13574 with tags, fused parts or gaps): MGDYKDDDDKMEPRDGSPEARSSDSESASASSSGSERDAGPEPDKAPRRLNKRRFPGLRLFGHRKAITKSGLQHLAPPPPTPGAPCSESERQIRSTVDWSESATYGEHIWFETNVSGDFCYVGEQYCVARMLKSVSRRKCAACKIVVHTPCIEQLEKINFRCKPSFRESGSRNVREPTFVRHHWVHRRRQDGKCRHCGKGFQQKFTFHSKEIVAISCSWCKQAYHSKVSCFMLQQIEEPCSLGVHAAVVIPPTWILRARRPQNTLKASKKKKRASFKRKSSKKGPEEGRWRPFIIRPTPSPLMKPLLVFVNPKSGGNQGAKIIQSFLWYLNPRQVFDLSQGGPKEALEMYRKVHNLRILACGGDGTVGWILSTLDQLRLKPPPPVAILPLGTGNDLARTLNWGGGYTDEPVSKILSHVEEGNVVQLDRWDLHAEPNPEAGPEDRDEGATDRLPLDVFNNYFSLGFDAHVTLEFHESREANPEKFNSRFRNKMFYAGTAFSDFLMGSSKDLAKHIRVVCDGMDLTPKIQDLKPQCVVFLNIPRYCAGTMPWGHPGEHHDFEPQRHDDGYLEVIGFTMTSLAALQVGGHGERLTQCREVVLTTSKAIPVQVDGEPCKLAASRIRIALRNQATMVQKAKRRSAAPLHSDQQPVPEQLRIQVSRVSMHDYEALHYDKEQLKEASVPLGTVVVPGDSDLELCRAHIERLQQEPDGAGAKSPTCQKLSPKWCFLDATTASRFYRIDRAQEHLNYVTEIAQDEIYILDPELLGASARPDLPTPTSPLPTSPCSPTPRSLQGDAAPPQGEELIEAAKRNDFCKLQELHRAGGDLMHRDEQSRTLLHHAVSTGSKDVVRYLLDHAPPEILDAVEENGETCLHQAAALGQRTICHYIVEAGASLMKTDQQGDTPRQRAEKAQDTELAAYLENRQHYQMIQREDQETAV
Experimental: Human DGKζ Kinase Activity Inhibition Assay
Human diacylglycerol kinase zeta (DGKζ) inhibitory activity of compounds of the present invention was quantified employing the human DGKζ kinase activity assay as described in the following paragraphs. In essence, the enzyme activity was measured by quantification of the adenosine-di-phosphate (ADP) generated as a co-product of the enzyme reaction via the “ADP-Glo™ Kinase Assay” kit from the company Promega. This detection system works as follows: In a first step the adenosine-tri-phosphate (ATP) not consumed in the kinase reaction is quantitatively converted to cyclic adenosine-mono-phosphate (cAMP) employing an adenylate cyclase (“ADP-Glo-reagent”), then the adenylate cyclase is stopped and the ADP generated in the kinase reaction is converted to ATP, which subsequently generates in a luciferase-based reaction a glow-luminescence signal (“Kinase Detection Reagent”).
C-terminally FLAG-tagged, recombinant full-length human DGKζ (inhouse expressed in baculovirus infected insect cells, purified using anti-Flag pulldown and size exclusion chromatography) was used as enzyme. As an alternative, commercially available enzyme by Carnabio can be used. As substrate for the kinase, 1,2-dioleoyl-sn-glycerol, reconstituted in octyl-β-D-glucopyranoside micelles, was used. […] Subsequently, 22.55 volumes of a 510 mM solution of octyl-β-D-glucopyranoside (Sigma-Aldrich, Cat. #08001-10G) in 50 mM MOPS buffer (pH 7.4) were added, and the mixture was sonicated in an ultrasonic bath for 20 s. Then 35 volumes of 50 mM MOPS buffer (pH 7.4) were added to yield a solution of 0.28 mM 1,2 dioleoyl-sn-glycerol and 200 mM octyl-β-D-glucopyranoside, which was aliquoted, flash-frozen in liquid nitrogen, and stored at −20° C. until use.
For the assay 50 nl of a 100-fold concentrated solution of the test compound in dimethyl sulfoxide (DMSO, Sigma) was pipetted into either a white 1536-well or a white low-volume 384-well microtiter plate (both Greiner Bio-One, Frickenhausen, Germany). […] The concentration of DGKζ was adjusted depending of the activity of the enzyme lot and was chosen appropriate to have the assay in the linear range, a typical concentration is about 0.1 nM. The reaction was stopped by the addition of 2.5 μL of “ADP-Glo-reagent” (1 to 1.5 diluted with water) and the resulting mixture was incubated at 22° C. for 1 h to convert the ATP not consumed in the kinase reaction completely to cAMP. Subsequently 2.5 μl of the “kinase detection reagent” (1.2 fold more concentrated than recommended by the producer) were added, the resulting mixture was incubated at 22° C. for 1 h and then the luminescence measured with a suitable measurement instrument (e.g. Viewlux™ from Perkin-Elmer). The amount of emitted light was taken as a measure for the amount of ADP generated and thereby for the activity of the DGKζ.
The data were normalised (enzyme reaction without inhibitor=0% inhibition, all other assay components but no enzyme=100% inhibition).

IC50 [nM] | Structure (SMILES)
387 | CNC(=O)COc1ccc(C(=O)c2sc(N(c3ccc(F)cc3)C(C)C(N)=O)nc2N)cc1 (single isomer, unassigned) [Example 151, 2-(N-[4-amino-5-[4-[2-(methylamino)-2-oxo-ethoxy]benzoyl]thiazol-2-yl]-4-fluoro-anilino)propanamide]
51 | CC(C(N)=O)N(c1ccc(F)cc1)c1nc(N)c(C(=O)c2ccc(C#N)c(F)c2)s1 (single isomer, unassigned) [Example 21.2, 2-(N-[4-amino-5-(4-cyano-3-fluoro-benzoyl)thiazol-2-yl]-4-fluoro-anilino)propanamide]
12.7 | CC(C(N)=O)N(c1ccc(F)cc1)c1nc(N)c(C(=O)c2ccc(OCC(=O)NCC34CC5CC(CC(C5)C3)C4)cc2)s1 (single isomer, unassigned) [Example 143, 2-(N-[5-[4-[2-(1-adamantylmethylamino)-2-oxo-ethoxy]benzoyl]-4-amino-thiazol-2-yl]-4-fluoro-anilino)propanamide]
107 | CC(C)NC(=O)COc1ccc(C(=O)c2sc(N(c3ccc(F)cc3)C(C)C(N)=O)nc2N)cc1 (single isomer, unassigned) [Example 153, 2-(N-[4-amino-5-[4-[2-(isopropylamino)-2-oxo-ethoxy]benzoyl]thiazol-2-yl]-4-fluoro-anilino)propanamide]
